In PubChem BioAssay AID248 (DTP/NCI, 2004):
Values joined by “and” are separate entries in the source; they are usually repeats but may differ in a detail not shown here. Equal values may be shown once. Toxic doses and inconclusive results are not listed.

Test system: L1210 leukemia ip in BDF1 mice, survival T/C
Experiment: NCI In Vivo Anticancer Drug Screen. Data for tumor model L1210 Leukemia (intraperitoneal) in B6D2F1 (BDF1) mice
Settings: endpoint: mean survival time, higher = longer survival
In short: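 Ratio derived from survival: compound-dosed mice over vehicle-dosed mice, all bearing a transplantable tumor.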

[1] = dose: 25.0 mg/kg/injection, schedule: Q01DX009 (ip), vehicle: saline
[2] = dose: 50.0 mg/kg/injection, schedule: Q01DX009 (ip), vehicle: saline
[3] = dose: 200.0 mg/kg/injection, schedule: Q01DX009 (ip), vehicle: saline
[4] = dose: 100.0 mg/kg/injection, schedule: Q04DX003 (ip), vehicle: Klucel (hydroxypropylcellulose) (HPC)
[5] = dose: 200.0 mg/kg/injection, schedule: Q04DX003 (ip), vehicle: Klucel (hydroxypropylcellulose) (HPC)
[6] = dose: 400.0 mg/kg/injection, schedule: Q04DX003 (ip), vehicle: Klucel (hydroxypropylcellulose) (HPC)
[7] = dose: 100.0 mg/kg/injection, schedule: Q01DX009 (ip), vehicle: saline
[8] = dose: 100.0 mg/kg/injection, schedule: Q01DX009 (ip), vehicle: saline with Tween-80
[9] = dose: 100.0 mg/kg/injection, schedule: Q04DX003 (ip), vehicle: saline with Tween-80
[10] = dose: 200.0 mg/kg/injection, schedule: Q01DX009 (ip), vehicle: saline with Tween-80
[11] = dose: 200.0 mg/kg/injection, schedule: Q04DX003 (ip), vehicle: saline with Tween-80
[12] = dose: 400.0 mg/kg/injection, schedule: Q01DX009 (ip), vehicle: saline with Tween-80
[13] = dose: 400.0 mg/kg/injection, schedule: Q04DX003 (ip), vehicle: saline with Tween-80
[14] = dose: 100.0 mg/kg/injection, schedule: Q04DX002 (ip), vehicle: saline with Tween-80
[15] = dose: 25.0 mg/kg/injection, schedule: Q01DX009 (ip), vehicle: Klucel (hydroxypropylcellulose) (HPC)
[16] = dose: 50.0 mg/kg/injection, schedule: Q01DX009 (ip), vehicle: Klucel (hydroxypropylcellulose) (HPC)
[17] = dose: 100.0 mg/kg/injection, schedule: Q01DX009 (ip), vehicle: Klucel (hydroxypropylcellulose) (HPC)
[18] = dose: 400.0 mg/kg/injection, schedule: Q01DX001 (ip), vehicle: saline
[19] = dose: 200.0 mg/kg/injection, schedule: Q01DX009 (ip), vehicle: Klucel (hydroxypropylcellulose) (HPC)

With `CC(=O)OCC1OC(n2cc(F)c(=O)[nH]c2=O)CC1OC(C)=O` (stereo not given) the T/C (dose: 3.0 mg/kg/injection, schedule: Q01DX009 (ip), vehicle: saline) was 98 % of control, the T/C (dose: 6.0 mg/kg/injection, schedule: Q01DX009 (ip), vehicle: saline) was 95 % of control and the T/C (dose: 12.0 mg/kg/injection, schedule: Q01DX009 (ip), vehicle: saline) was 95 % of control. The T/C (dose: 24.0 mg/kg/injection, schedule: Q01DX009 (ip), vehicle: saline) was 106 % of control, the T/C [1] was 111 % of control and the T/C [2] was 122 % of control. The T/C [3] was 123 % of control.
With `O=C(O)c1cc(/C=C/c2ccccc2)ccc1[N+](=O)[O-]` the T/C (dose: 100.0 mg/kg/injection, schedule: Q04DX003 (ip), vehicle: saline) was 103 % of control, the T/C (dose: 200.0 mg/kg/injection, schedule: Q04DX003 (ip), vehicle: saline) was 97 % of control and the T/C (dose: 400.0 mg/kg/injection, schedule: Q04DX003 (ip), vehicle: saline) was 100 % of control.
For `Cc1cccc(OS(=O)(=O)c2ccccc2[N+](=O)[O-])c1`, the T/C (dose: 100.0 mg/kg/injection, schedule: Q01DX009 (ip), vehicle: saline sonified) was 103 % of control, the T/C [4] was 93 % of control and the T/C [5] was 96 % of control. The T/C (dose: 400.0 mg/kg/injection, schedule: Q01DX009 (ip), vehicle: saline sonified) was 111 % of control and the T/C [6] was 90 % of control.
With `O=[P+](O)C(O)c1ccccc1` (stereo not given) the T/C [7] was 95 % of control, the T/C [3] was 95 % of control and the T/C (dose: 400.0 mg/kg/injection, schedule: Q01DX009 (ip), vehicle: saline) was 95 % of control.
In the case of `CC1(C)c2ccccc2Nc2ccccc21`, the T/C [8] was 86 % of control, the T/C [9] was 97 % of control and the T/C [10] was 89 % of control. The T/C [11] was 101 % of control, the T/C [12] was 89 % of control and the T/C [13] was 98 % of control.
`CCCCS(=O)(=O)F` was tested, and the T/C [14] was 93 % of control.
In the case of `O=C1CCCC(=O)C1C(C[N+](=O)[O-])c1ccccc1` (stereo not given), the T/C (dose: 12.5 mg/kg/injection, schedule: Q01DX009 (ip), vehicle: Klucel (hydroxypropylcellulose) (HPC)) was 97 % of control, the T/C [15] was 93 % of control and the T/C [16] was 90 % of control. For the same molecule, the T/C [17] was 88 % of control and the T/C [4] was 98 % of control.
`CCCCCOC(=O)Nc1ccc(S(=O)(=O)N(C)C)cc1` was tested, and the T/C (dose: 100.0 mg/kg/injection, schedule: Q01DX001 (ip), vehicle: saline) was 100 % of control, the T/C (dose: 200.0 mg/kg/injection, schedule: Q01DX001 (ip), vehicle: saline) was 108 % of control and the T/C [18] was 100 % of control.
In the case of `CC(CNC(=O)CCOS(C)(=O)=O)NC(=O)CCOS(C)(=O)=O` (stereo not given), the T/C (dose: 22.0 mg/kg/injection, schedule: Q01DX Z (ip), vehicle: carboxymethylcellulose (CMC)) was 104 % of control, the T/C (dose: 33.0 mg/kg/injection, schedule: Q01DX Z (ip), vehicle: carboxymethylcellulose (CMC)) was 111 % of control and the T/C (dose: 50.0 mg/kg/injection, schedule: Q01DX Z (ip), vehicle: carboxymethylcellulose (CMC)) was 100 % of control and 113 % of control. For the same molecule, the T/C (dose: 76.0 mg/kg/injection, schedule: Q01DX Z (ip), vehicle: carboxymethylcellulose (CMC)) was 107 % of control, the T/C (dose: 113.0 mg/kg/injection, schedule: Q01DX Z (ip), vehicle: carboxymethylcellulose (CMC)) was 153 % of control and the T/C (dose: 170.0 mg/kg/injection, schedule: Q01DX Z (ip), vehicle: carboxymethylcellulose (CMC)) was 113 % of control.
`CCCCCCCCCCCCSCCSCCSCCCCCCCCCCCC` was tested, and the T/C [4] was 93 % of control, the T/C [5] was 92 % of control and the T/C [6] was 98 % of control.
For `CCNCc1ccc(OC)cc1`, the T/C [1] was 101 % of control, the T/C [2] was 93 % of control and the T/C [7] was 100 % of control. The T/C [9] was 120 % of control.
With `COc1cc(/C=N/[N+](C)(C)C)ccc1O` the T/C (dose: 12.5 mg/kg/injection, schedule: Q01DX009 (ip), vehicle: saline with Tween-80) was 94 % of control, the T/C (dose: 12.5 mg/kg/injection, schedule: Q04DX003 (ip), vehicle: saline with Tween-80) was 96 % of control and the T/C (dose: 25.0 mg/kg/injection, schedule: Q01DX009 (ip), vehicle: saline with Tween-80) was 96 % of control. For the same molecule, the T/C (dose: 25.0 mg/kg/injection, schedule: Q04DX003 (ip), vehicle: saline with Tween-80) was 93 % of control and the T/C (dose: 50.0 mg/kg/injection, schedule: Q04DX003 (ip), vehicle: saline with Tween-80) was 97 % of control.
With `CCC(=O)Oc1ccc(/C=N/NC(N)=S)nc1` the T/C [14] was 113 % of control.
In the case of `COC(=O)[C@@H]1C2C=CC(C2)[C@@H]1C(=O)OC`, the T/C [8] was 101 % of control, the T/C [10] was 104 % of control and the T/C [12] was 104 % of control.
`CCCCCCCCCCCCCCCC[N+](C)(C)Cc1ccccc1` was tested, and the T/C (dose: 0.5 mg/kg/injection, schedule: Q04DX002 (ip), vehicle: Klucel (hydroxypropylcellulose) (HPC)) was 98 % of control, the T/C (dose: 1.0 mg/kg/injection, schedule: Q04DX002 (ip), vehicle: Klucel (hydroxypropylcellulose) (HPC)) was 103 % of control and the T/C (dose: 2.0 mg/kg/injection, schedule: Q04DX002 (ip), vehicle: Klucel (hydroxypropylcellulose) (HPC)) was 103 % of control.
For `FC(F)(F)/C([S-])=C(/[S-])C(F)(F)F.FC(F)(F)/C([S-])=C(/[S-])C(F)(F)F.FC(F)(F)/C([S-])=C(/[S-])C(F)(F)F.FC(F)(F)/C([S-])=C(/[S-])C(F)(F)F.[Co+3].[Co+3]`, the T/C (dose: 12.5 mg/kg/injection, schedule: Q01DX009 (ip), vehicle: other) was 113 % of control and the T/C (dose: 25.0 mg/kg/injection, schedule: Q01DX009 (ip), vehicle: other) was 104 % of control.
For `COc1ccc(NC(=O)Oc2ccc(Br)cc2Br)c(OC)c1`, the T/C [17] was 108 % of control and the T/C [19] was 113 % of control.
For `NC(=O)N/N=C1\CC2C=CCC12` (stereo not given), the T/C [9] was 94 % of control, the T/C [11] was 92 % of control and the T/C [13] was 108 % of control.
For `O=C1c2ccccc2C(=O)c2c(O)c3c(c(O)c21)CCCC3OC1OC(CO)C(O)C(O)C1O` (stereo not given), the T/C [18] was 91 % of control.
With `COC(=O)CCNc1ccccc1-c1ccccc1` the T/C (dose: 100.0 mg/kg/injection, schedule: Q04DX002 (ip), vehicle: saline) was 95 % of control, the T/C (dose: 200.0 mg/kg/injection, schedule: Q04DX002 (ip), vehicle: saline) was 114 % of control and the T/C (dose: 400.0 mg/kg/injection, schedule: Q04DX002 (ip), vehicle: saline) was 103 % of control.
With `COc1ccccc1NC(=O)Nc1cccc(C)c1C` the T/C [17] was 96 % of control, the T/C [4] was 93 % of control and the T/C [19] was 92 % of control. For the same molecule, the T/C [5] was 93 % of control, the T/C (dose: 400.0 mg/kg/injection, schedule: Q01DX009 (ip), vehicle: Klucel (hydroxypropylcellulose) (HPC)) was 100 % of control and the T/C [6] was 92 % of control.
With `Clc1c2ccccc2c(Cl)c2ccccc12` the T/C (dose: 3.1 mg/kg/injection, schedule: Q04DX002 (ip), vehicle: Klucel (hydroxypropylcellulose) (HPC)) was 89 % of control, the T/C (dose: 6.25 mg/kg/injection, schedule: Q04DX002 (ip), vehicle: Klucel (hydroxypropylcellulose) (HPC)) was 100 % of control and the T/C (dose: 12.5 mg/kg/injection, schedule: Q04DX002 (ip), vehicle: Klucel (hydroxypropylcellulose) (HPC)) was 93 % of control. For the same molecule, the T/C (dose: 25.0 mg/kg/injection, schedule: Q04DX002 (ip), vehicle: Klucel (hydroxypropylcellulose) (HPC)) was 90 % of control.
With `C[CH2][Sb]([CH2]C)([CH2]C)([O]C(C)=O)[O]C(C)=O` the T/C (dose: 5.0 mg/kg/injection, schedule: Q04DX002 (ip), vehicle: saline with Tween-80) was 97 % of control, the T/C (dose: 10.0 mg/kg/injection, schedule: Q04DX002 (ip), vehicle: saline with Tween-80) was 97 % of control and the T/C (dose: 20.0 mg/kg/injection, schedule: Q04DX002 (ip), vehicle: saline with Tween-80) was 104 % of control.
`COc1cc2cccc(OC)c(=O)c2c(O)c1OC` was tested, and the T/C [15] was 92 % of control, the T/C [16] was 96 % of control and the T/C [17] was 92 % of control and 106 % of control. The T/C [4] was 101 % of control, the T/C [5] was 92 % of control and the T/C [6] was 99 % of control.
`O=C(CC(c1ccccc1)c1c(O)c2ccccc2oc1=O)c1ccccc1` (stereo not given) was tested, and the T/C (dose: 0.5 mg/kg/injection, schedule: Q01DX009 (ip), vehicle: saline with Tween-80) was 95 % of control, the T/C (dose: 1.0 mg/kg/injection, schedule: Q01DX009 (ip), vehicle: saline with Tween-80) was 97 % of control and the T/C (dose: 2.0 mg/kg/injection, schedule: Q01DX009 (ip), vehicle: saline with Tween-80) was 100 % of control. The T/C (dose: 4.0 mg/kg/injection, schedule: Q01DX009 (ip), vehicle: saline with Tween-80) was 104 % of control, the T/C [9] was 94 % of control and the T/C [11] was 91 % of control. The T/C [13] was 101 % of control.
